Assay results published in ChEMBL document CHEMBL1122538, “Functional group contributions to drug-receptor interactions” (J Med Chem, 1984).

Experiment: Binding energy by using the equation deltaG obsd = -RT ln KD
Format: ADME

Point of comparison: `CN1Cc2c(N)cccc2C(c2ccccc2)C1` (centres undefined) [NOMIFENSINE], Binding energy 8.8 kcal/mol. Against it:
- NCCCC(=O)O [GAMMA-AMINOBUTYRIC ACID] — higher, 10.9 kcal/mol
- CN1[C@@H]2CC[C@H]1C[C@@H](OC(=O)C(CO)c1ccccc1)C2 (some centres undefined) [ATROPINE] — higher, 12.8 kcal/mol
- C[C@]12CCC(=O)C[C@@H]1CC[C@@H]1[C@@H]2CC[C@]2(C)[C@@H](O)CC[C@@H]12 (stereo in doubt) [STANOLONE] — lower, 6.8 kcal/mol
- O=C(O)C(=O)O [OXALIC ACID] — lower, 7.8 kcal/mol
- CC/C(=C(\c1ccccc1)c1ccc(OCCN(C)C)cc1)c1ccccc1 [TAMOXIFEN] — higher, 12.3 kcal/mol
- CC(=O)CC(=O)C(=O)O — higher, 9.1 kcal/mol
- CC(C(=O)O)c1ccc(-c2ccccc2)c(F)c1 (centres undefined) [FLURBIPROFEN] — higher, 9.1 kcal/mol
- O=c1[nH]c2ccccc2n1C1CCN(CCCC(c2ccc(F)cc2)c2ccc(F)cc2)CC1 [PIMOZIDE] — higher, 12.8 kcal/mol
- Cc1ccc(/C(=C\CN2CCCC2)c2ccccn2)cc1 [TRIPROLIDINE] — higher, 13.6 kcal/mol
- CCc1nc(N)nc(N)c1C12CC3CC(CC(C3)C1)C2 — higher, 13.4 kcal/mol
- O=C(c1ccc(F)cc1)C1CCN(CCn2c(=O)[nH]c3ccccc3c2=O)CC1 [KETANSERIN] — higher, 12.8 kcal/mol
- O=C(NO)C(O)P(=O)(O)O (centres undefined) — higher, 10.9 kcal/mol
- CCC(=O)C(CC(C)N(C)C)(c1ccccc1)c1ccccc1 (centres undefined) [METHADONE] — higher, 11.8 kcal/mol
